One may read the IC50 as the concentration needed to halve the response being measured.

T1 sequence (P31749 whole entry E17K): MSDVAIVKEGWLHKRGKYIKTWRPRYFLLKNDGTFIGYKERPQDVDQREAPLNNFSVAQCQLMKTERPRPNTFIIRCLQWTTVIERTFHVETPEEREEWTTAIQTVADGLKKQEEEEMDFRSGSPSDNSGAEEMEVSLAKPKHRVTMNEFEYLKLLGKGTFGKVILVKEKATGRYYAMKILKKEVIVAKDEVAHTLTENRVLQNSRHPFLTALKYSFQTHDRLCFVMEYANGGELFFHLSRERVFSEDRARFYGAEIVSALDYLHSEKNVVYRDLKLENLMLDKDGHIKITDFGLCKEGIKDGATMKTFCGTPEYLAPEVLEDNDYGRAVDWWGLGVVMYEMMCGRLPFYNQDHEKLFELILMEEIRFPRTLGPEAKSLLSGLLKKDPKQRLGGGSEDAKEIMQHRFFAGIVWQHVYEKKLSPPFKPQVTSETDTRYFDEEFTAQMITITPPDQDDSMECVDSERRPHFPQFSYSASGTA

The first test addresses T1, full length AKT E17K (Homo sapiens, UniProt P31749, E17K).
T1 construct: host or cells: HEK-293 (ATCC CRL-1573)
In words: NanoBRET Target Engagement (TE) Assay. The format is cell-based. Particulars: competitive displacement of tracer in cells, read-out: AKT1 E17K IC50. A digest of the protocol:
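Compound and tracer incubated 2 h before luminescence at donor 450 nm and acceptor 600 nm, with extracellular signal inhibited. EC50 by sigmoidal variable-slope regression.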
(Bioluminescence resonance energy transfer reports proximity on the nanometre scale.)
Take `N#Cc1ncnc(NC2CC3(CCN(Cc4ccc(-n5c(-c6cccnc6N)nc6ccc(N7CCOCC7)nc65)cc4)CC3)C2)n1` [Example 434, 4-((7-(4-(2-(2-Aminopyridin-3-yl)-5-morpholino-3H-imidazo[4,5-b]pyridin-3-yl)benzyl)-7-azaspiro[3.5]nonan-2-yl)amino)-1,3,5-triazine-2-carbonitrile]: the half-inhibitory concentration (IC50) lay in the range of 15 to 60 nM.

On to `N#Cc1nccc(NC2CCN(Cc3ccc(-n4c(-c5cccnc5N)nc5ccc(-c6ccc(C(F)(F)F)cc6)nc54)cc3)CC2)n1` [Example 471, 4-((1-(4-(2-(2-Aminopyridin-3-yl)-5-(4-(trifluoromethyl)phenyl)-3H-imidazo[4,5-b]pyridin-3-yl)benzyl)piperidin-4-yl)amino)pyrimidine-2-carbonitrile], for which the IC50 was 15 to 60 nM.

As to `Cc1cc(C)c2nc(-c3cccnc3N)n(-c3ccc(CN4CCC(Nc5ccnc(C#N)n5)CC4)cc3)c2n1` [Example 493, 4-((1-(4-(2-(2-Aminopyridin-3-yl)-5,7-dimethyl-3H-imidazo[4,5-b]pyridin-3-yl)benzyl)piperidin-4-yl)amino)pyrimidine-2-carbonitrile], the IC50 is less than 15 nM.

On to `Cc1nc2c(cc1C#N)nc(-c1cccnc1N)n2-c1ccc(CN2CCC(Nc3ccnc(C#N)n3)CC2)cc1` [Example 550, 2-(2-Aminopyridin-3-yl)-3-(4-((4-((2-cyanopyrimidin-4-yl)amino)piperidin-1-yl)methyl)phenyl)-5-methyl-3H-imidazo[4,5-b]pyridine-6-carbonitrile], for which the IC50 was less than 15 nM.

As for `N#Cc1nccc(NC2CCN(Cc3ccc(-n4c(-c5cccnc5N)nc5ccc(N6CCCC6)nc54)cc3)CC2)n1` [Example 510, 4-((1-(4-(2-(2-Aminopyridin-3-yl)-5-(pyrrolidin-1-yl)-3H-imidazo[4,5-b]pyridin-3-yl)benzyl)piperidin-4-yl)amino)pyrimidine-2-carbonitrile], the IC50 was less than 15 nM.

As for `N#Cc1nccc(NC2CCN(Cc3ccc(-n4c(-c5cccnc5N)nc5ccc(OCF)nc54)cc3)CC2)n1` [Example 416, 4-((1-(4-(2-(2-Aminopyridin-3-yl)-5-(fluoromethoxy)-3H-imidazo[4,5-b]pyridin-3-yl)benzyl)piperidin-4-yl)amino)pyrimidine-2-carbonitrile], the IC50 was less than 15 nM.

For the compound `N#Cc1cc(NC2CCN(Cc3ccc(-n4c(-c5cccnc5N)nc5ccc(-c6cccc(Cl)c6)nc54)cc3)CC2)ncn1` [Example 373, 6-((1-(4-(2-(2-Aminopyridin-3-yl)-5-(3-chlorophenyl)-3H-imidazo[4,5-b]pyridin-3-yl)benzyl)piperidin-4-yl)amino)pyrimidine-4-carbonitrile], the IC50 was 15 to 60 nM.

Turning to `CCn1ncc(-c2ccc3nc(-c4nccnc4N)n(-c4ccc(CN5CCC(Nc6ccnc(C#N)n6)CC5)cc4)c3n2)n1` [Example 629, 4-((1-(4-(2-(3-Aminopyrazin-2-yl)-5-(2-ethyl-2H-1,2,3-triazol-4-yl)-3H-imidazo[4,5-b]pyridin-3-yl)benzyl)piperidin-4-yl)amino)pyrimidine-2-carbonitrile], the concentration for half-maximal inhibition (IC50) is less than 15 nM.

`Cc1nnc(-c2ccc3nc(-c4cccnc4N)n(-c4ccc(CN5CCC(Nc6ccnc(C#N)n6)CC5)cc4)c3n2)o1` [Example 566, 4-((1-(4-(2-(2-Aminopyridin-3-yl)-5-(5-methyl-1,3,4-oxadiazol-2-yl)-3H-imidazo[4,5-b]pyridin-3-yl)benzyl)piperidin-4-yl)amino)pyrimidine-2-carbonitrile]: the IC50 was 15 to 60 nM.

As for `CNC(=O)c1ccc2nc(-c3cccnc3N)n(-c3ccc(CN4CCC(Nc5ccnc(C#N)n5)CC4)cc3)c2n1` [Example 398, 2-(2-Aminopyridin-3-yl)-3-(4-((4-((2-cyanopyrimidin-4-yl)amino)piperidin-1-yl)methyl)phenyl)-N-methyl-3H-imidazo[4,5-h]pyridine-5-carboxamide], the IC50 is less than 15 nM.

Turning to `N#Cc1nccc(NC2CCN(Cc3ccc(-n4c(-c5cccnc5N)nc5ccc(-c6ccc(F)cc6C(F)(F)F)nc54)cc3)CC2)n1` [Example 526, 4-((1-(4-(2-(2-Aminopyridin-3-yl)-5-(4-fluoro-2-(trifluoromethyl)phenyl)-3H-imidazo[4,5-b]pyridin-3-yl)benzyl)piperidin-4-yl)amino)pyrimidine-2-carbonitrile], the concentration for half-maximal inhibition (IC50) is 600 to 10000 nM.

For the compound `N#Cc1nccc(NC2CCN(Cc3ccc(-n4c(-c5cccnc5N)nc5ccc(C6COC6)nc54)cc3)CC2)n1` [Example 420, 4-((1-(4-(2-(2-Aminopyridin-3-yl)-5-(oxetan-3-yl)-3H-imidazo[4,5-h]pyridin-3-yl)benzyl)piperidin-4-yl)amino)pyrimidine-2-carbonitrile], the half-inhibitory concentration (IC50) was less than 15 nM.

Regarding `Cc1cc2nc(-c3cccnc3N)n(-c3ccc(CN4CCC(Nc5ccnc(C#N)n5)CC4)cc3)c2nc1C#N` [Example 565, 2-(2-Aminopyridin-3-yl)-3-(4-((4-((2-cyanopyrimidin-4-yl)amino)piperidin-1-yl)methyl)phenyl)-6-methyl-3H-imidazo[4,5-b]pyridine-5-carbonitrile], the concentration for half-maximal inhibition (IC50) was less than 15 nM.

Still in this test, the particulars now being: competitive tracer displacement in living cells, read-out: AKT1 E17K IC50.
Take `C[C@@H]1CN(Cc2ccc(-n3c(-c4cccnc4N)nc4ccc(-c5ccccc5)nc43)cc2)C[C@@H](C)N1c1ccnc(C#N)n1` [Example 195, 4-((2R,6R)-4-(4-(2-(2-aminopyridin-3-yl)-5-phenyl-3H-imidazo[4,5-b]pyridin-3-yl)benzyl)-2,6-dimethylpiperazin-1-yl)pyrimidine-2-carbonitrile]: the concentration for half-maximal inhibition (IC50) was less than 15 nM.

`N#Cc1cc(C(=O)NCc2ccc(-n3c(-c4cccnc4N)nc4cc(-c5ccccc5)cnc43)cc2)ccn1` [Example 169, N-(4-(2-(2-Aminopyridin-3-yl)-6-phenyl-3H-imidazo[4,5-b]pyridin-3-yl)benzyl)-2-cyanoisonicotinamide]: the IC50 lay in the range of 60 to 600 nM.

In the case of `N#Cc1nccc(NCc2ccc(-n3c(-c4cccnc4N)nc4cccnc43)cc2)n1` [Example 47, 4-((4-(2-(2-Aminopyridin-3-yl)-3H-imidazo[4,5-b]pyridin-3-yl)benzyl)amino)pyrimidine-2-carbonitrile], the half-maximal inhibitory concentration (IC50) lay within 600 to 10000 nM.

Turning to `N#Cc1nc2cc(F)cc(C(=O)NC3CCN(Cc4ccc(-n5c(-c6cccnc6N)nc6cccnc65)cc4)CC3)c2s1` [Example 35, N-(1-(4-(2-(2-Aminopyridin-3-yl)-3H-imidazo[4,5-b]pyridin-3-yl)benzyl)piperidin-4-yl)-2-cyano-5-fluorobenzo[d]thiazole-7-carboxamide], the half-inhibitory concentration (IC50) lay within 60 to 600 nM.

Take `N#Cc1ccnc(N2CC3CCC2CN3Cc2ccc(-n3c(-c4cccnc4N)nc4ccc(-c5ccccc5)nc43)cc2)n1` (stereo not drawn) [Example 220, 2-(5-(4-(2-(2-Aminopyridin-3-yl)-5-phenyl-3H-imidazo[4,5-b]pyridin-3-yl)benzyl)-2,5-diazabicyclo[2.2.2]octan-2-yl)pyrimidine-4-carbonitrile]: the IC50 fell in the range of 60 to 600 nM.

As for `N#Cc1cncc(C(=O)NC2CCN(Cc3ccc(-n4c(-c5cccnc5N)nc5ccc(-c6ccccc6)nc54)cc3)CC2)c1` [Example 57, N-(1-(4-(2-(2-Aminopyridin-3-yl)-5-phenyl-3H-imidazo[4,5-h]pyridin-3-yl)benzyl)piperidin-4-yl)-5-cyanonicotinamide], the 50% inhibitory concentration (IC50) lay within 60 to 600 nM.

For the compound `N#Cc1cccc(N2CCN(Cc3ccc(-n4c(-c5cccnc5N)nc5cccnc54)cc3)CC2)n1` [Example 15, 6-(4-(4-(2-(2-Aminopyridin-3-yl)-3H-imidazo[4,5-b]pyridin-3-yl)benzyl)piperazin-1-yl)picolinonitrile], the IC50 fell in the range of 600 to 10000 nM.

On to `N#Cc1nccc(N2CCN(Cc3ccc(-n4c(-c5cccnc5N)nc5cccnc54)cc3)CC2)n1` [Example 18, 4-(4-(4-(2-(2-Aminopyridin-3-yl)-3H-imidazo[4,5-b]pyridin-3-yl)benzyl)piperazin-1-yl)pyrimidine-2-carbonitrile], for which the IC50 lay in the range of 60 to 600 nM.

For `N#Cc1cncc(C(=O)N2CCN(Cc3ccc(-n4c(-c5cccnc5N)nc5ccc(-c6ccccc6)nc54)cc3)CC2)c1` [Example 139, 5-(4-(4-(2-(2-Aminopyridin-3-yl)-5-phenyl-3H-imidazo[4,5-b]pyridin-3-yl)benzyl)piperazine-1-carbonyl)nicotinonitrile], the half-maximal inhibitory concentration (IC50) lay within 600 to 10000 nM.

Regarding `N#Cc1cccnc1C(=O)N1CCN(Cc2ccc(-n3c(-c4cccnc4N)nc4ccc(-c5ccccc5)nc43)cc2)CC1` [Example 146, 2-(4-(4-(2-(2-Aminopyridin-3-yl)-5-phenyl-3H-imidazo[4,5-b]pyridin-3-yl)benzyl)piperazine-1-carbonyl)nicotinonitrile], the IC50 lay within 600 to 10000 nM.

For the compound `N#Cc1ccnc(N2CCN(Cc3ccc(-n4c(-c5cccnc5N)nc5ccc(-c6cccc(Cl)c6)nc54)cc3)CC2)n1` [Example 297, 2-(4-(4-(2-(2-Aminopyridin-3-yl)-5-(3-chlorophenyl)-3H-imidazo[4,5-b]pyridin-3-yl)benzyl)piperazin-1-yl)pyrimidine-4-carbonitrile], the IC50 was 60 to 600 nM.

In the case of `N#Cc1cnnc(N2CCN(Cc3ccc(-n4c(-c5cccnc5N)nc5cccnc54)cc3)CC2)c1` [Example 22, 6-(4-(4-(2-(2-Aminopyridin-3-yl)-3H-imidazo[4,5-b]pyridin-3-yl)benzyl)piperazin-1-yl)pyridazine-4-carbonitrile], the IC50 is 600 to 10000 nM.

For the compound `N#Cc1cnnc(NC2CCN(Cc3ccc(-n4c(-c5cccnc5N)nc5cccnc54)cc3)CC2)c1` [Example 51, 6-((1-(4-(2-(2-Aminopyridin-3-yl)-3H-imidazo[4,5-b]pyridin-3-yl)benzyl)piperidin-4-yl)amino)pyridazine-4-carbonitrile], the IC50 was 600 to 10000 nM.

As to `C[C@H]1CN(Cc2ccc(-n3c(-c4cccnc4N)nc4ccc(-c5ccccc5)nc43)cc2)C[C@H](C)N1c1ncnc(C#N)n1` [Example 275, 4-((2S,6S)-4-(4-(2-(2-Aminopyridin-3-yl)-5-phenyl-3H-imidazo[4,5-b]pyridin-3-yl)benzyl)-2,6-dimethylpiperazin-1-yl)-1,3,5-triazine-2-carbonitrile], the half-inhibitory concentration (IC50) is less than 15 nM.

The values above are taken from patent US12209087B2, “AKT1 modulators” (Alterome Therapeutics, Inc., priority 2022, dated 2025).
